Test results reported in patent publication US20230115515A1, “PYRAZOLYLPROPANAMIDE COMPOUNDS AND USES THEREOF FOR TREATMENT OF PROSTATE CANCER” (priority 2020, published 2023).

How the values were obtained:
[1] = Metabolic stability in mouse liver microsomes (phase I and II)
[2] = test system: AR and AR-V7-positive 22RV1 xenograft; experiment: 22RV1 xenograft in NSG mice; assay type: in vivo, mouse
[3] = test system: UT-1355 TNBC PDX; experiment: TNBC patient-derived xenograft UT-1355 in NSG mice; assay type: in vivo, mouse; conditions: for tumor volume at end: in mm³ (unit assumed)
[4] = Metabolic stability in rat liver microsomes (phase I and II); assay type: in vitro ADME; conditions: for half-life at 1 µM: read-out: RLM T1/2
[5] = test system: ventral prostate (VP) and seminal vesicle (SV) weights; experiment: Hershberger assay in intact rats; assay type: in vivo, rat
Protocol: FIGS. 7A and 7B depict that SARDs and pan-antagonists inhibited androgen-dependent organs in rats. FIGS. 7 A and 7B show the reduction of VP and SV weights following the treatment of intact rats with 20 mg/kg (mpk) po daily of antagonist or vehicle for 14 days (n=5/group). Rats were sacrificed at the end of the treatment period and weights of prostate and SVs were measured and normalized to body weight.
Male rats (6-8 weeks old) were randomized into groups based on body weight. Animals were sacrificed, prostate and seminal vesicles were weighed, and organ weights were normalized to body weight. Male rats (n=5/group) were left intact, for […]. […] Organ weights were normalized to body weight. […] The goal of the experiments was to find compounds with in vivo antiandrogen efficacies greater than 10.
Hershberger Assays. […] Rat ventral prostate (VP), seminal vesicle (SV), and levator ani (LA) muscle are AR-dependent tissues whose size (reflected by their weight) responds rapidly to castration.
Traditionally, agonists are dosed to prevent (whereby agonist is given upon castration) or restore (agonist is given after tissue atrophies) anabolic tissue weights [LA or other skeletal muscles and bone (the latter takes months not days to atrophy and restore)] to intact levels or greater, without increasing androgenic tissue (SV or VP) weights back to intact levels. […]

[6] = In vivo lethality observation; conditions: 5 mg/kg
[7] = in vitro; conditions: mouse, microsomes, pH 7.5
[8] = Metabolic stability in human liver microsomes (phase I and II); assay type: in vitro ADME
[9] = target: CMV-hAR (Homo sapiens, UniProt P10275); experiment: cell-based; conditions: read-out: Wt. IC50
Sequence of CMV-hAR (P10275 whole entry, the tested form may be a part): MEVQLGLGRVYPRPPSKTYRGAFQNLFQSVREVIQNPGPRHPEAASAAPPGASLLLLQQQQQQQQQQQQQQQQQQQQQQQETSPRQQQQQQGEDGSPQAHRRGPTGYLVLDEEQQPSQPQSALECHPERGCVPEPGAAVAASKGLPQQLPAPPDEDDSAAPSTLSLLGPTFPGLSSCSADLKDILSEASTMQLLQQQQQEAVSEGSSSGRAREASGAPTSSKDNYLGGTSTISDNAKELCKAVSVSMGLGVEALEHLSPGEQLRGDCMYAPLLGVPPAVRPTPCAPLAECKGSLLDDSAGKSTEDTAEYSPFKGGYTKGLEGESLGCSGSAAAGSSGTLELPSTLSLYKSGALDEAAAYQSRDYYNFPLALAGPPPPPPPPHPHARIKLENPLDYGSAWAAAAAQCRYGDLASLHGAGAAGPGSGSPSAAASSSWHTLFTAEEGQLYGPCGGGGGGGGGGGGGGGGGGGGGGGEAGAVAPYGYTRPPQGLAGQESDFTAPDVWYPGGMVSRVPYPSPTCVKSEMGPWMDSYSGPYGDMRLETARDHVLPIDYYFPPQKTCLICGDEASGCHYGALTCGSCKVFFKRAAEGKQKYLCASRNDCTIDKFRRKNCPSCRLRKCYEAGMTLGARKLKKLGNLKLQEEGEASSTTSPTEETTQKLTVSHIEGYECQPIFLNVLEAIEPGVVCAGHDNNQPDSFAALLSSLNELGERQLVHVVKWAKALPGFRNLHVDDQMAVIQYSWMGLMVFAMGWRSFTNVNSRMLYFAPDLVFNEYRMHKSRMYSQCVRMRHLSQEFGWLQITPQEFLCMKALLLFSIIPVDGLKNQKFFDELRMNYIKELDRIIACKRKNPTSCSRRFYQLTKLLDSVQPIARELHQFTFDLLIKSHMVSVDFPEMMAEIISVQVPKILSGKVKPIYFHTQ

[10] = target: T1, hAR-LBD (633-919) (Homo sapiens, UniProt P10275); experiment: Ligand binding assay (Ki), [3H]mibolerone competition (Table A)
T1 sequence (P10275 633-919): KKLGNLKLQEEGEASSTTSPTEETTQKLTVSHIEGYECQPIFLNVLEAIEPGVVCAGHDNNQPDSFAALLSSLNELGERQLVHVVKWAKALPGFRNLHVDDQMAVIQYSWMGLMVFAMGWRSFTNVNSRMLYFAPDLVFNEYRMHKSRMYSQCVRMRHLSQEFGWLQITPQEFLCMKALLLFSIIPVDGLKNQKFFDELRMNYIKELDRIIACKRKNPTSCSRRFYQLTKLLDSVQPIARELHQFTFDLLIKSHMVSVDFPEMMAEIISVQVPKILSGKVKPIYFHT

[11] = test system: Enzalutamide resistant VCaP (MDVR VCaP) xenograft; experiment: Enz-R (MDVR) VCaP xenograft in intact SRG rats; assay type: in vivo, rat; conditions: 10 mg/kg po daily, FIG. 8B
[12] = test system: Enzalutamide resistant VCaP (MDVR VCaP) xenograft; conditions: cited from earlier work
[13] = target: recombinant LBD of wildtype AR (wtAR); conditions: read-out: Binding Ki; cited from earlier work
[14] = test system: FKBP5 gene expression in LNCaP cells; experiment: AR-target gene (FKBP5) expression in LNCaP cells, real-time PCR; assay type: cell-based, human; conditions: R1881-induced, FIG. 3
[15] = pH 7.5, MLM T1/2 (min), co-factors for phases I and II
[16] = rat, microsomes, pH 7.5, cofactors for phases I and II

Molecule `C[C@](O)(Cn1ccc(F)n1)C(=O)Nc1ccc(C#N)c(C(F)(F)F)c1` [Compound 16b, (S)—N-(4-Cyano-3-(trifluoromethyl)phenyl)-3-(3-fluoro-1H-pyrazol-1-yl)-2-hydroxy-2-methylpropanamide] has a half-life at 1 µM [1, 15] of no less than 0.807 h.

For `C[C@](O)(Cn1cc(C#N)cn1)C(=O)Nc1cnc(C#N)c(C(F)(F)F)c1` [Compound 21c, (S)-3-(4-Cyano-1H-pyrazol-1-yl)-N-(6-cyano-5-(trifluoromethyl)pyridin-3-yl)-2-hydroxy-2-methylpropanamide], the “tumor volume at end” value ([2]; oral, NSG mice) was 1205 mm^3, the “tumor volume at start” value ([2]; oral, NSG mice) was 301 mm^3 and the “tumor volume inhibition (maximum)” value ([2]; oral, NSG mice, FIGS. 11A-11B) was 63%. The “growth inhibition of UT-1355 PDX” value ([3]; 60 mpk 21c, 10 60 mpk b.i.d) was “significantly inhibited the growth”, the tumor volume at start ([3]; 60 mpk 21c, 10 60 mpk b.i.d) was 227 mm³ and the “tumor volume at end” value ([3]; 60 mpk 21c, 10 60 mpk b.i.d) was 331.

With `C[C@](O)(Cn1cc(Cl)cn1)C(=O)Nc1ccc(C#N)c(C(F)(F)F)c1` [Compound 16c, (S)-3-(4-Chloro-1H-pyrazol-1-yl)-N-(4-cyano-3-(trifluoromethyl)phenyl)-2-hydroxy-2-methylpropanamide] the “RLM T1/2” value ([4]; cofactors for phases I and II) was greater than 2 h and the half-life at 1 µM [4, 16] was greater than 2 h.

With `C[C@](O)(Cn1cc(C(F)(F)F)cn1)C(=O)Nc1ccc(C#N)c(C(F)(F)F)c1` [Compound 16g, (S)—N-(4-Cyano-3-(trifluoromethyl)phenyl)-2-hydroxy-2-methyl-3-(4-(trifluoromethyl)-1H-pyrazol-1-yl)propanamide] the half-life at 1 µM [4, 16] was greater than 2 h and the half-life at 1 µM [1, 15] was no less than 0.807 h.

For `C[C@](O)(Cn1cc(C#N)cn1)C(=O)Nc1ccc(C#N)c(C(F)(F)F)c1` [Compound 16i, (S)-3-(4-Cyano-1H-pyrazol-1-yl)-N-(4-cyano-3-(trifluoromethyl)phenyl)-2-hydroxy-2-methylpropanamide], the “toxicity in 20 mg/kg fixed dose screening Hershberger” value ([5]; 20 mg/kg, rats) was “toxic so no data”, the half-life at 1 µM [1, 15] was no less than 0.807 h and the lethality in vivo [6] was “lethality at 5 mg/kg”.

For `C[C@](O)(Cn1cc(F)cn1)C(=O)Nc1cnc(C#N)c(C(F)(F)F)c1` [Compound 21a], the half-life at 1 µM [7] was no less than 0.807 h, the “RLM CLint” value ([4]; rat, microsomes, 1 µM, pH 7.5) was 0 µL/min/mg and the “HLM CLint” value ([8]; 1 µM, pH 7.5) was 0 µL/min/mg.

`C[C@](O)(Cn1cc(C#N)cn1)C(=O)Nc1ccc(C#N)cc1Cl` [Compound 29j, (S)—N-(2-chloro-4-cyanophenyl)-3-(4-cyano-1H-pyrazol-1-yl)-2-hydroxy-2-methylpropanamide] showed an IC50 [9] of 1120 nM.

`C[C@](O)(Cn1cc(F)cn1)C(=O)Nc1ccc(C#N)cc1Cl` [Compound 29i, (S)—N-(2-Chloro-4-Cyanophenyl)-3-(4-Fluoro-1H-Pyrazol-l-Yl)-2-Hydroxy-2-Methylpropanamide] showed an IC50 [9] of 1230 nM.

Work on `C[C@](O)(Cn1cc(-c2ccc(C#N)cc2)nn1)C(=O)Nc1ccc(C#N)c(C(F)(F)F)c1` [Compound 29o, (S)—N-(4-Cyano-3-(Trifluoromethyl)Phenyl)-3-(4-(4-Cyanophenyl)-1H-1,2,3-Triazol-1-Yl)-2-Hydroxy-2-Methylpropanamide] yielded an IC50 [9] of 62 nM and a Ki [10] of 1510 nM.

For `C[C@](O)(Cn1cc(Br)c(F)n1)C(=O)Nc1ccc(C#N)c(C(F)(F)F)c1` [Compound 26a, (S)-3-(4-Bromo-3-fluoro-1H-pyrazol-1-yl)-N-(4-cyano-3-(trifluoromethyl)phenyl)-2-hydroxy-2-methylpropanamide], the “tumor weights at the end of the study” value [11] was “significant inhibition”, the half-life at 1 µM [4, 16] was greater than 2 h and the SV weight reduction ([5]; 20 mg/kg po daily, intact rats, FIG. 7B) was roughly 50%. It also gave a half-life at 1 µM ([8]; pH 7.5, cofactors for phases I and II, read-out: HLM T1/2) greater than 2 h.

In the case of `C[C@](O)(Cn1cc(F)cn1)C(=O)Nc1ccc(C#N)c(C(F)(F)F)c1` [Compound 10, (S)—N-(4-Cyano-3-(trifluoromethyl)phenyl)-3-(4-fluoro-1H-pyrazol-1-yl)-2-hydroxy-2-methylpropanamide], the tumor volume at start ([3]; 60 mpk 21c, 10 60 mpk b.i.d) is given as 427 mm³, the “tumor volume at end” value ([3]; 60 mpk 21c, 10 60 mpk b.i.d) is given as 1354 and the “dose required to achieve similar results (TGI)” value ([12]; previously published for 10) is given as 20 to 30 mg/kg.

For `CC(O)c1cc(C(=O)N[C@@H](C)Cn2ccc(-c3ccc(C#N)c(Cl)c3)n2)[nH]n1` (some centres unmarked) [6 (darolutamide), darolutamide], the Ki [13] is given as 11 nM.

In the case of `C[C@@](O)(Cn1cc(F)cn1)C(=O)Nc1ccc(C#N)c(C(F)(F)F)c1` [Compound 29a, (R)—N-(4-Cyano-3-(trifluoromethyl)phenyl)-3-(4-fluoro-1H-pyrazol-1-yl)-2-hydroxy-2-methylpropanamide], the half-life at 1 µM ([1]; pH 7.5) is reported as no less than 0.807 h.

`C[C@](O)(Cn1cc(F)cn1)C(=O)Nc1ccc(C(N)=O)nc1` [Compound 21g, (S)-5-(3-(4-Fluoro-1H-pyrazol-1-yl)-2-hydroxy-2-methylpropanamido)picolinamide] showed a half-life at 1 µM ([1]; pH 7.5) greater than 6 h.

Work on `Cc1c(NC(=O)[C@@](C)(O)Cn2cc(C#N)cn2)ccc(C#N)c1Cl` [Compound 29k, (S)—N-(3-Chloro-4-Cyano-2-Methylphenyl)-3-(4-Cyano-1H-Pyrazol-1-Yl)-2-Hydroxy-2-Methylpropanamide] yielded an IC50 [9] of 1700 nM.

With `CNC(=O)c1ccc(N2C(=S)N(c3ccc(C#N)c(C(F)(F)F)c3)C(=O)C2(C)C)cc1F` [4 (enzalutamide), enzalutamide, reference compound] the “inhibition of FKBP5 expression” value [14] was “also inhibited expression of the FKBP5 but at a slightly lower potency”, the “time to euthanasia criteria (Kaplan-Meier)” value ([2]; length>2 cm or volume>2000 mm^3, FIG. 12) was “reached euthanasia criteria earlier than the animals treated with 21c” and the “effect on 22RV1 xenograft growth” value ([2]; oral, NSG mice) was “failed to inhibit the growth”. The “time to euthanasia criteria (Kaplan-Meier)” value ([3]; enzalutamide 60 mpk, FIG. 15) was “reached euthanasia criteria earlier than the animals treated with 21c” and the “effect in MDVR VCaP xenograft” value ([12]; not shown, previously published) was “failed to durably achieve any effect”.

With `C[C@](O)(Cn1ccc(C(F)(F)F)n1)C(=O)Nc1ccc(C#N)c(C(F)(F)F)c1` [Compound 16h, (S)—N-(4-Cyano-3-(trifluoromethyl)phenyl)-2-hydroxy-2-methyl-3-(3-(trifluoromethyl)-1H-pyrazol-1-yl)propanamide] the half-life at 1 µM [1, 15] was no less than 0.807 h.
